Results: US8115015B2 (Cadila Healthcare Limited, priority 2009, dated 2012)

Assay: Stability of Atorvastatin Calcium Amorphous (related substances by HPLC on storage)
Format: physicochemical
[1] = 25° ± 2° C./RH 60 ± 5%, 1 Month
[2] = 25° ± 2° C./RH 60 ± 5%, 2 Months
[3] = 25° ± 2° C./RH 60 ± 5%, 3 months
[4] = 25° ± 2° C./RH 60 ± 5%, 6 Months
[5] = 25° ± 2° C./RH 60 ± 5%, 6 Months, listed as stable amorphous atrovastatin calcium
[6] = 25°±2° C./RH 60±5% for 6 months
[7] = Cold (5° C.) 2° to 8° C., 1 Month
[8] = Cold (5° C.) 2° to 8° C., 2 Months
[9] = Cold (5° C.) 2° to 8° C., 3 months
[10] = Cold (5° C.) 2° to 8° C., 6 Months
[11] = Cold (5° C.) 2° to 8° C., 6 Months, listed as stable amorphous atrovastatin calcium

hemi-calcium salt of (3R, 5R) 7-[3-phenyl-4-phenylcarbamoyl-2-(4-fluorophenyl)-5-isopropyl-pyrrol-1-yl]-3,5-dihydroxyheptanoic acid [Atorvastatin Calcium Amorphous]
single individual unknown impurities, area percentage of HPLC (20 to 8° C. under cold (5° C.) condition for 6 months): < 0.1% | Related Substance by HPLC: 3-O-Methyl Atorvastatin Calcium [1]: 0.02% | Related Substance by HPLC: Atorvastatin Desflouro Calcium [1]: 0.05% | Related Substance by HPLC: Atorvastatin Diasteroisomer [1]: 0.08% | Related Substance by HPLC: Atorvastatin Lactone [1]: 0.07% | Related Substance by HPLC: 3-O-Methyl Atorvastatin Calcium [2]: 0.03 | Related Substance by HPLC: Atorvastatin Desflouro Calcium [2]: 0.06% | Related Substance by HPLC: Atorvastatin Diasteroisomer [2]: 0.10% | Related Substance by HPLC: Atorvastatin Lactone [2]: 0.05% | Related Substance by HPLC: 3-O-Methyl Atorvastatin Calcium [3]: 0.03% | Related Substance by HPLC: Atorvastatin Desflouro Calcium [3]: 0.06% | Related Substance by HPLC: Atorvastatin Diasteroisomer [3]: 0.12% | Related Substance by HPLC: Atorvastatin Lactone [3]: 0.04% | Related Substance by HPLC: 3-O-Methyl Atorvastatin Calcium [4]: 0.03% | Related Substance by HPLC: Atorvastatin Desflouro Calcium [4]: 0.06% | Related Substance by HPLC: Atorvastatin Diasteroisomer [4]: 0.11% | Related Substance by HPLC: Atorvastatin Lactone [4]: 0.05% | Related Substance by HPLC: Atorvastatin diol methyl ester [4]: less than 0.1% | Related Substance by HPLC: Atorvastatin protected diol [4]: less than 0.1% | Related Substance by HPLC: t-butyl diol ester [4]: less than 0.1% | Related Substance by HPLC: 3-O-Methyl Atorvastatin Calcium [5]: less than 0.1% | Related Substance by HPLC: Atorvastatin Desflouro Calcium [5]: less than 0.1% | Related Substance by HPLC: Atorvastatin Diasteroisomer [5]: less than 0.1% | Related Substance by HPLC: Atorvastatin Lactone [5]: less than 0.1% | single individual known impurities, area percentage of HPLC [6]: less than 0.15% | single individual unknown impurities, area percentage of HPLC [6]: less than 0.1% | Related Substance by HPLC: 3-O-Methyl Atorvastatin Calcium [7]: 0.03% | Related Substance by HPLC: Atorvastatin Desflouro Calcium [7]: 0.06% | Related Substance by HPLC: Atorvastatin Diasteroisomer [7]: 0.08% | Related Substance by HPLC: Atorvastatin Lactone [7]: 0.08% | Related Substance by HPLC: 3-O-Methyl Atorvastatin Calcium [8]: 0.03% | Related Substance by HPLC: Atorvastatin Desflouro Calcium [8]: 0.07% | Related Substance by HPLC: Atorvastatin Diasteroisomer [8]: 0.09% | Related Substance by HPLC: Atorvastatin Lactone [8]: 0.04% | Related Substance by HPLC: 3-O-Methyl Atorvastatin Calcium [9]: 0.03% | Related Substance by HPLC: Atorvastatin Desflouro Calcium [9]: 0.07% | Related Substance by HPLC: Atorvastatin Diasteroisomer [9]: 0.10% | Related Substance by HPLC: Atorvastatin Lactone [9]: 0.05% | Related Substance by HPLC: 3-O-Methyl Atorvastatin Calcium [10]: 0.03% | Related Substance by HPLC: Atorvastatin Desflouro Calcium [10]: 0.05% | Related Substance by HPLC: Atorvastatin Diasteroisomer [10]: 0.08% | Related Substance by HPLC: Atorvastatin Lactone [10]: 0.06% | Related Substance by HPLC: Atorvastatin diol methyl ester [10]: less than 0.1% | Related Substance by HPLC: Atorvastatin protected diol [10]: less than 0.1% | Related Substance by HPLC: t-butyl diol ester [10]: less than 0.1% | Related Substance by HPLC: 3-O-Methyl Atorvastatin Calcium [11]: less than 0.1% | Related Substance by HPLC: Atorvastatin Desflouro Calcium [11]: less than 0.1% | Related Substance by HPLC: Atorvastatin Diasteroisomer [11]: less than 0.1% | Related Substance by HPLC: Atorvastatin Lactone [11]: less than 0.1% | Related Substance by HPLC: 3-O-Methyl Atorvastatin Calcium (Initial): 0.02% | Related Substance by HPLC: Atorvastatin Desflouro Calcium (Initial): 0.06% | Related Substance by HPLC: Atorvastatin Diasteroisomer (Initial): 0.07% | Related Substance by HPLC: Atorvastatin Lactone (Initial): 0.09% | Related Substance by HPLC: Atorvastatin protected diol (Initial): 0.01% | single individual known impurities, area percentage of HPLC (cold (5° C.) condition for 6 months): less than 0.15%
